Results taken from ChEMBL document CHEMBL1128880, “Design and synthesis of heterocyclic analogues of mycophenolic acid as potential chemotherapeutic agents” (Bioorg Med Chem Lett, 1995).

Experiments:
MCF7 = test: In vitro antitumor activity against MCF-7 human breast adenocarcinoma cells; assay type: functional, cell-based
A549 = test: In vitro antitumor activity against A549 human NSCLC lung carcinoma cells; assay type: functional, cell-based
CCRF-CEM [1] = test: Cytotoxic activity against HIV infected T4 lymphocytes (CEM cell line); assay type: functional, cell-based; details: Homo sapiens
L1210 = test: In vitro antitumor activity against L1210 murine lymphocytic leukemia cells; assay type: functional, cell-based; details: Mus musculus
HT-29 = test: In vitro antitumor activity against HT-29 human colon adenocarcinoma cells; assay type: functional, cell-based
PSN1 = test: In vitro antitumor activity against PSN-1 human pancreatic carcinoma cells; assay type: functional, cell-based
CCRF-CEM [2] = test: Antitumor activity against HIV infected T4 lymphocytes (CEM cell line) at 0.4 uM concentration; assay type: functional, Homo sapiens
CCRF-CEM [3] = test: Cytotoxic activity against HIV uninfected T4 lymphocytes (CEM cell line); assay type: functional, cell-based; details: Homo sapiens

Compound	IC50 (MCF7) [µM]	IC50 (A549) [µM]	IC50 (L1210) [µM]	IC50 (HT-29) [µM]	IC50 (PSN1) [µM]	IC50 (CCRF-CEM [1]) [µM]	Protection (CCRF-CEM [2]) [%]	IC50 (CCRF-CEM [3]) [µM]
C/C(=C\Cn1cnc2c(O)ncnc21)CCC(=O)O	> 100	> 100	> 100	> 100	> 100			
C/C(=C\Cn1cnc2c(Cl)ncnc21)CCC(=O)O	> 100	> 100	> 100	> 100	> 100			
COC(=O)c1ccc(C/C=C(\C)CCC(=O)O)[nH]1	> 100	> 100	> 100	> 100	> 100	360		
C/C(=C\Cn1cnc(C(=O)O)n1)CCC(=O)O	> 100	> 100	> 100	> 100	> 100			
COc1c(C)c2c(c(O)c1C/C=C(\C)CCC(=O)O)C(=O)OC2 [MYCOPHENOLIC ACID]	0.5	0.4	< 0.2	0.9	0.7		20	0.9

Second part, led by results:

IC50 (MCF7) [µM]	IC50 (A549) [µM]	IC50 (L1210) [µM]	IC50 (HT-29) [µM]	IC50 (PSN1) [µM]	Compound	IC50 (CCRF-CEM [1]) [µM]	Protection (CCRF-CEM [2]) [%]	IC50 (CCRF-CEM [3]) [µM]
> 100	> 100	> 100	> 100	> 100	C/C(=C\Cc1ccc(C(N)=O)[nH]1)CCC(=O)O	730		
> 100	> 100	> 100	> 100	> 100	C/C(=C\Cc1nc(C(N)=O)cs1)CCC(=O)O			
> 100	> 100	> 100	> 100	> 100	C/C(=C\Cn1cnc(C(N)=O)n1)CCC(=O)O			
> 100	> 100	> 100	> 100	> 100	C/C(=C\Cc1cccc(C(N)=O)n1)CCC(=O)O			
